Strand notation (5' to 3'): a small letter for the sugar, then the base; units joined by * are phosphorothioate-linked, units joined directly phosphodiester-linked; [ ] holds rarer units or linkages, { } end groups; capitals alone tell only the bases. e = 2'-O-(2-methoxyethyl) (MOE); k = constrained ethyl (cEt); [5mC] = 5-methylcytosine; d = 2'-deoxy (DNA)
Experiments:
human PKK mRNA [1] = test: Dose-dependent antisense inhibition of human PKK in HepaRG cells, 0.11-3.00 uM (Example 6); type: cell-based; conditions: for percent inhibition of PKK mRNA, 0.11 μM / percent inhibition of PKK mRNA, 0.33 μM / percent inhibition of PKK mRNA, 1.00 μM / percent inhibition of PKK mRNA, 3.00 μM: electroporation, approx. 16 hours, relative to untreated control cells; for IC50: 0.11-3.00 μM
Outline: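 Antisense oligonucleotides were tested over 0.11–3.00 μM, delivered by electroporation, with readout after roughly 16 h. Human PKK transcript was measured by real-time PCR (set RTS3454) and adjusted to RIBOGREEN total RNA, giving half-maximal inhibitory concentrations.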

human PKK mRNA [2] = test: Antisense inhibition of human PKK mRNA in HepaRG cells, 1,000 nM, MOE/deoxy/cEt oligonucleotides (Example 3); type: cell-based
Outline: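 Readout is percent PKK mRNA reduction against untreated controls, by real-time PCR (RTS3454) adjusted for total RNA via RIBOGREEN. Oligonucleotides, phosphorothioate gapmers of 16 nucleosides with cEt, MOE and deoxy sugars, were delivered at 1,000 nM by electroporation to 20,000 HepaRG cells/well for roughly 24 h.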

[3] = HepaRG cells, electroporation with 1,000 nM antisense oligonucleotide, approx. 24 hours, PKK mRNA by RT-PCR (RTS3454), relative to untreated control cells, Table 26 experiment
[4] = HepaRG cells, electroporation with 1,000 nM antisense oligonucleotide, approx. 24 hours, PKK mRNA by RT-PCR (RTS3454), relative to untreated control cells, Table 25 experiment
[5] = HepaRG cells, electroporation with 1,000 nM antisense oligonucleotide, approximately 24 hours, primer probe set RTS3454, relative to untreated control cells, experiment of Table 24
[6] = Table 20, HepaRG cells, electroporation with 1,000 nM antisense oligonucleotide, approximately 24 hours, PKK mRNA by RT-PCR (RTS3454), relative to untreated control cells
[7] = Table 22 experiment, HepaRG cells, electroporation with 1,000 nM antisense oligonucleotide, approx. 24 hours, PKK mRNA by RT-PCR (RTS3454), relative to untreated control cells
[8] = Table 30, human PKK mRNA, HepaRG cells, 1,000 nM antisense oligonucleotide

Substance	percent inhibition of PKK mRNA, 0.11 μM (human PKK mRNA [1]) [%]	percent inhibition of PKK mRNA, 0.33 μM (human PKK mRNA [1]) [%]	percent inhibition of PKK mRNA, 1.00 μM (human PKK mRNA [1]) [%]	percent inhibition of PKK mRNA, 3.00 μM (human PKK mRNA [1]) [%]	% inhibition (human PKK mRNA [2]; [3]) [%]	IC50 (human PKK mRNA [1]) [nM]	% inhibition (human PKK mRNA [2]; [4]) [%]	% inhibition (human PKK mRNA [2]; [5]) [%]	% inhibition (human PKK mRNA [2]; [6]) [%]	% inhibition (human PKK mRNA [2]; [7]) [%]	% inhibition (human PKK mRNA [2]; [8]) [%]	% inhibition (human PKK mRNA [2]; HepaRG cells, electroporation with 1,000 nM antisense oligonucleotide, approximately 24 hours, primer probe set RTS3454, relative to untreated control cells, experiment of Table 23) [%]	% inhibition (human PKK mRNA [2]; Table 19, HepaRG cells, electroporation with 1,000 nM antisense oligonucleotide, approximately 24 hours, PKK mRNA by RT-PCR (RTS3454), relative to untreated control cells) [%]	% inhibition (human PKK mRNA [2]; Table 28, HepaRG cells, 1,000 nM antisense oligonucleotide, human PKK mRNA) [%]	% inhibition (human PKK mRNA [2]; PKK mRNA, HepaRG cells, 1,000 nM antisense oligonucleotide, Table 31) [%]	% inhibition (human PKK mRNA [2]; HepaRG cells, 1,000 nM antisense oligonucleotide, Table 29) [%]
548265 (antisense e[5mC]*e[5mC]*kT*d[5mC]*dT*dT*dG*dA*dT*dT*dT*dG*dG*kG*k[5mC]*eA) [compound 548265]	47	69	78	67	85											
548155 (e[5mC]*eG*kT*dG*d[5mC]*dT*dG*dA*dA*dA*dG*d[5mC]*dG*kG*kG*e[5mC]; antisense) [compound 548155]	49	50	70	81		300	76									
548004 (eA*eG*kT*dA*dA*d[5mC]*d[5mC]*dA*dG*dA*dG*d[5mC]*dT*k[5mC]*k[5mC]*e[5mC]; antisense) [compound 548004]	24	47	80	92		300		80								
548247 (antisense e[5mC]*eG*kA*dT*dT*dT*dT*d[5mC]*d[5mC]*dA*dT*dG*d[5mC]*kA*kT*eA) [compound 548247]	16	50	62	82	56	500										
547851 (antisense eT*eA*kA*dA*dT*dG*dT*d[5mC]*dT*d[5mC]*dG*dA*dT*kG*kG*e[5mC]) [compound 547851]	16	46	83			400			93	84						
548410 (antisense eA*eG*kT*dA*dT*d[5mC]*dA*d[5mC]*dT*dG*dT*dA*d[5mC]*kT*kA*eG) [compound 548410]	31	58	85	82		200					85					
548220 (eG*e[5mC]*kA*dG*dA*dA*dA*dT*d[5mC]*d[5mC]*dT*dG*dT*kG*k[5mC]*eA; antisense) [compound 548220]	0	0	0	6		> 3000	69									
547948 (eA*eG*kG*dA*dA*d[5mC]*dT*dT*dG*dG*dT*dG*dT*kG*k[5mC]*e[5mC]; antisense) [compound 547948]	60	80	88	97								77				
548409 (antisense eG*eT*kA*dT*d[5mC]*dA*d[5mC]*dT*dG*dT*dA*d[5mC]*dT*kA*kG*eT) [compound 548409]	21	60	90	93		300					81					
548106 (antisense e[5mC]*e[5mC]*kA*dT*dG*dT*dA*d[5mC]*dT*d[5mC]*dA*dG*d[5mC]*kG*kA*e[5mC]) [compound 548106]	53	54	82	94									79			
548010 (eA*eG*kT*dG*dT*dT*dA*d[5mC]*dA*d[5mC]*dA*dA*dT*k[5mC]*kT*e[5mC]; antisense) [compound 548010]	0	11	49	64		1400		80								
548486 (e[5mC]*eG*kT*dG*dG*dT*dT*dA*dG*d[5mC]*d[5mC]*dT*dG*kA*k[5mC]*eA; antisense) [compound 548486]	20	48	77	92		400								68		
548668 (antisense eG*eG*kG*dA*dG*d[5mC]*dT*dT*dT*d[5mC]*dA*dT*dG*kG*k[5mC]*eT) [compound 548668]	10	30	61	84		700									68	
547857 (antisense e[5mC]*eT*k[5mC]*dA*dT*dA*dT*d[5mC]*dA*dA*d[5mC]*dT*d[5mC]*k[5mC]*kT*eT) [compound 547857]	36	66	77	93		200				84						
548558 (antisense eA*eA*k[5mC]*dA*dT*dT*dG*dT*dG*dT*dA*dG*d[5mC]*kT*kG*e[5mC]) [compound 548558]	53	61	78	95												75
548070 (e[5mC]*e[5mC]*k[5mC]*dA*dA*d[5mC]*dA*dG*dT*dT*dG*dG*dT*kA*kT*eA; antisense) [compound 548070]	26	35	48	63		1100		85								
547843 (antisense e[5mC]*eA*k[5mC]*dT*dT*dA*dT*dT*dT*dG*dA*dT*dG*kA*k[5mC]*e[5mC]) [compound 547843]	0	52	80	91		400			83	83						
547861 (antisense eA*e[5mC]*kT*d[5mC]*d[5mC]*dT*d[5mC]*dT*d[5mC]*dA*dT*dA*dT*k[5mC]*kA*eA) [compound 547861]	7	40	75	84		500			0	57						
547997 (antisense eT*eT*kG*dT*dG*dT*d[5mC]*d[5mC]*d[5mC]*dA*dT*dA*d[5mC]*kG*k[5mC]*eA) [compound 547997]	39	68		82		200		89								

From patent publication US11840686B2, “Modulation of prekallikrein (PKK) expression” (Ionis Pharmaceuticals, Inc., priority 2013, dated 2023)
